Measured values as given in PubChem BioAssay AID1963841 (Molecular Pharmacology Branch, DTP, NCI, 2024).

System: 439559-082-T-J2-PDC spheroid viability
Assay: Anticancer human tumor 439559-082-T-J2-PDC patient-derived colon adenocarcinoma cell line growth inhibition [POLQ]
Details: spheroids with HUVEC and MSC; for IC50: curve of first compound; for viability, T/C: stronger effect = lower value
Outline: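 Patient-derived tumour cells were co-cultured with HUVEC and mesenchymal stem cells as multicellular spheroids at 37 °C. They were treated with POLQ inhibitors (novobiocin, ART-558, RP6685) alone or combined with other agents. Top concentrations were at or near clinical Cmax (otherwise 10 microM; SN-38 at 1 microM), decreasing in half-log steps.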

[1] = second compound 0.0316 µM, first compound 0.0316 µM
[2] = second compound 0.0316 µM, first compound 0.1 µM
[3] = second compound 0.0316 µM, first compound 0.316 µM
[4] = second compound 0.0316 µM, first compound 1 µM
[5] = second compound 0.0316 µM, first compound 3.16 µM
[6] = second compound 0.0316 µM, first compound 10 µM
[7] = second compound 0.1 µM, first compound 0.0316 µM
[8] = second compound 0.1 µM, first compound 0.1 µM
[9] = second compound 0.1 µM, first compound 0.316 µM
[10] = second compound 0.1 µM, first compound 1 µM
[11] = second compound 0.1 µM, first compound 3.16 µM
[12] = second compound 0.1 µM, first compound 10 µM
[13] = second compound 0.316 µM, first compound 0.0316 µM
[14] = second compound 0.316 µM, first compound 0.1 µM
[15] = second compound 0.316 µM, first compound 0.316 µM
[16] = second compound 0.316 µM, first compound 1 µM
[17] = second compound 0.316 µM, first compound 3.16 µM
[18] = second compound 0.316 µM, first compound 10 µM
[19] = second compound 1 µM, first compound 0.0316 µM
[20] = second compound 1 µM, first compound 0.1 µM
[21] = second compound 1 µM, first compound 0.316 µM
[22] = second compound 1 µM, first compound 1 µM
[23] = second compound 1 µM, first compound 3.16 µM
[24] = second compound 1 µM, first compound 10 µM
[25] = second compound 3.16 µM, first compound 0.0316 µM
[26] = second compound 3.16 µM, first compound 0.1 µM
[27] = second compound 3.16 µM, first compound 0.316 µM
[28] = second compound 3.16 µM, first compound 1 µM
[29] = second compound 3.16 µM, first compound 3.16 µM
[30] = second compound 3.16 µM, first compound 10 µM
[31] = second compound 10 µM, first compound 0.0316 µM
[32] = second compound 10 µM, first compound 0.1 µM
[33] = second compound 10 µM, first compound 0.316 µM
[34] = second compound 10 µM, first compound 1 µM
[35] = second compound 10 µM, first compound 3.16 µM
[36] = second compound 10 µM, first compound 10 µM
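Further: spheroids exposed to compounds for seven days before readout.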
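Wherever viability, T/C is given: 100% = DMSO vehicle control viability.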

## COc1cc(C2c3cc4c(cc3C(OC3OC5COC(C)OC5C(O)C3O)C3COC(=O)C23)OCO4)cc(OC)c1O (centres undefined) + COC1C(OC(N)=O)C(O)C(Oc2ccc3c(O)c(NC(=O)c4ccc(O)c(CC=C(C)C)c4)c(=O)oc3c2C)OC1(C)C
Second compound 0.0316 µM
  IC50: > 10000 nM
Second compound 0.1 µM
  IC50: > 10000 nM
Second compound 0.316 µM
  IC50: > 10000 nM
Second compound 1 µM
  IC50: > 10000 nM
Second compound 3.16 µM
  IC50: > 10000 nM
Second compound 10 µM
  IC50: > 10000 nM
[1]
  viability, T/C: 94.7%
[2]
  viability, T/C: 97.2%
[3]
  viability, T/C: 102%
[4]
  viability, T/C: 98%
[5]
  viability, T/C: 90%
[6]
  viability, T/C: 76.8%
[7]
  viability, T/C: 108%
[8]
  viability, T/C: 108%
[9]
  viability, T/C: 102%
[10]
  viability, T/C: 90.7%
[11]
  viability, T/C: 92.7%
[12]
  viability, T/C: 72.9%
[13]
  viability, T/C: 102%
[14]
  viability, T/C: 105%
[15]
  viability, T/C: 91%
[16]
  viability, T/C: 98.6%
[17]
  viability, T/C: 89.5%
[18]
  viability, T/C: 69.8%
[19]
  viability, T/C: 102%
[20]
  viability, T/C: 94.7%
[21]
  viability, T/C: 98.6%
[22]
  viability, T/C: 100%
[23]
  viability, T/C: 87.1%
[24]
  viability, T/C: 71.5%
[25]
  viability, T/C: 101%
[26]
  viability, T/C: 101%
[27]
  viability, T/C: 99.1%
[28]
  viability, T/C: 94.5%
[29]
  viability, T/C: 91.4%
[30]
  viability, T/C: 73.1%
[31]
  viability, T/C: 100%
[32]
  viability, T/C: 103%
[33]
  viability, T/C: 100%
[34]
  viability, T/C: 92.4%
[35]
  viability, T/C: 86.8%
[36]
  viability, T/C: 71.7%

## Nc1ccn(C2OC(CO)C(O)C2(F)F)c(=O)n1 (centres undefined) + Nc1ccc(C#CCN(C(=O)Cc2ncc(C(F)(F)F)cc2C(F)(F)F)c2ccc(F)cc2)nn1
Second compound 0.0316 µM
  IC50: 393 nM
Second compound 0.1 µM
  IC50: 583 nM
Second compound 0.316 µM
  IC50: 464 nM
Second compound 1 µM
  IC50: 519 nM
Second compound 3.16 µM
  IC50: 615 nM
Second compound 10 µM
  IC50: 1920 nM
[1]
  viability, T/C: 81.7%
[2]
  viability, T/C: 88.2%
[3]
  viability, T/C: 54.1%
[4]
  viability, T/C: 35.6%
[5]
  viability, T/C: 32.7%
[6]
  viability, T/C: 28.2%
[7]
  viability, T/C: 89.5%
[8]
  viability, T/C: 90.7%
[9]
  viability, T/C: 63%
[10]
  viability, T/C: 38.9%
[11]
  viability, T/C: 33.9%
[12]
  viability, T/C: 28.8%
[13]
  viability, T/C: 91.1%
[14]
  viability, T/C: 90.2%
[15]
  viability, T/C: 57.4%
[16]
  viability, T/C: 35.5%
[17]
  viability, T/C: 33.2%
[18]
  viability, T/C: 26.1%
[19]
  viability, T/C: 86.4%
[20]
  viability, T/C: 85.6%
[21]
  viability, T/C: 59.1%
[22]
  viability, T/C: 37.9%
[23]
  viability, T/C: 32.7%
[24]
  viability, T/C: 28.8%
[25]
  viability, T/C: 86.3%
[26]
  viability, T/C: 79.3%
[27]
  viability, T/C: 62.9%
[28]
  viability, T/C: 39.1%
[29]
  viability, T/C: 36.1%
[30]
  viability, T/C: 27.1%
[31]
  viability, T/C: 90.1%
[32]
  viability, T/C: 80%
[33]
  viability, T/C: 81.9%
[34]
  viability, T/C: 63.4%
[35]
  viability, T/C: 39.3%
[36]
  viability, T/C: 35.9%
